Assay results taken from patent publication US10087185B2 (Janssen Pharmaceutica NV, priority 2016, dated 2018).

The molecules below were run against TARP γ8 dependent AMPA receptor (GRIA1o-CACNG8 fusion construct) (Homo sapiens (Human), UniProt P42261+Q8WXS5) (assay: Calcium flux assay (FLIPR), inhibition of glutamate response of GluA1o-γ8 channel). Settings: HEK293 cells stably expressing GRIA1o-CACNG8 fusion; calcium flux after 15 μM glutamate; negative log of the IC50 in molar.
Chain of TARP γ8 dependent AMPA receptor (GRIA1o-CACNG8 fusion construct) (P42261 other isoform, or with tags, fused parts or gaps): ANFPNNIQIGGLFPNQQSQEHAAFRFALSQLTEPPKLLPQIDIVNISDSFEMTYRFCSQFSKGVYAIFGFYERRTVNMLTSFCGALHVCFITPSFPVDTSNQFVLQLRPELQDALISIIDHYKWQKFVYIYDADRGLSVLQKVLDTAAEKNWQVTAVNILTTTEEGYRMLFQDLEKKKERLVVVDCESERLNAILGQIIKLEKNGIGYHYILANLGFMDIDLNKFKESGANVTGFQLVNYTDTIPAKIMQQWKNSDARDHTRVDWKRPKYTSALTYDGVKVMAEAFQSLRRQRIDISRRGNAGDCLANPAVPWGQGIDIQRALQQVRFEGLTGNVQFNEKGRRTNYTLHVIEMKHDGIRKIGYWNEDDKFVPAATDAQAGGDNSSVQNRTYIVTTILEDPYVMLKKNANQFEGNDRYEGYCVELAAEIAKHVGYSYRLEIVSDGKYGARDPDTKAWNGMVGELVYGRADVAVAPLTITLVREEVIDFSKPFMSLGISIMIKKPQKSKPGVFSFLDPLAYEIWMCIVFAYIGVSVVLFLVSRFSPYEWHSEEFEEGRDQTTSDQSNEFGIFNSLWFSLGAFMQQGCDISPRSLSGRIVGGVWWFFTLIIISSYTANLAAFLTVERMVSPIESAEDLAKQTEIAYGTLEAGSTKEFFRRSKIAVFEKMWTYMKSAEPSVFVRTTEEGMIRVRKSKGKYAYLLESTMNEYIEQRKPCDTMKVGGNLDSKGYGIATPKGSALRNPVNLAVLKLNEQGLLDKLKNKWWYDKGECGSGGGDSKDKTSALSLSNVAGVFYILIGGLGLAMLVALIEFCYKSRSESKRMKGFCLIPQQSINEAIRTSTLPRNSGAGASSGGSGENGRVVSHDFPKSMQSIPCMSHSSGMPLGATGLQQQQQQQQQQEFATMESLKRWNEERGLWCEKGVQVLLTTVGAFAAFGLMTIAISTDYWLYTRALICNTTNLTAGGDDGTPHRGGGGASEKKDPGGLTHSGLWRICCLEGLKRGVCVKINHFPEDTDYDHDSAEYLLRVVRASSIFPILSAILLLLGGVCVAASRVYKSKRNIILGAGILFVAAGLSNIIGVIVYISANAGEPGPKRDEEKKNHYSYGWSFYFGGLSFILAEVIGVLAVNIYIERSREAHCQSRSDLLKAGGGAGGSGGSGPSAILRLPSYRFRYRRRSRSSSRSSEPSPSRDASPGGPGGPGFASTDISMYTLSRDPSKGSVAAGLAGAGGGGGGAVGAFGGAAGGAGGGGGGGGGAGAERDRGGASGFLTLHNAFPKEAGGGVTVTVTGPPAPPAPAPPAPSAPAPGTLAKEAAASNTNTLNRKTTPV
Assay type: cell-based
Excerpt: This assay was used to test compounds for their ability to inhibit TARP γ8 dependent AMPA receptor activity. The AMPA receptor is a non-selective cation channel activated by glutamate. […] But, this desensitization is incomplete, and a substantial steady-state current remains in the sustained presence of glutamate (Cho et al. (2007). “Two families of TARP isoforms that have distinct effects on the kinetic properties of AMPA receptors and synaptic currents.” Neuron 55(6): 890-904).
An in vitro assay was used to determine the potency of test compounds as inhibitors of the glutamate response of the channel formed by GluA10-γ8. To ensure a 1:1 stoichiometry of GluA1o and γ8 subunits in the expressed channel, a fusion of the cDNAs for GRIA1o and CACNG8 was used. Following Shi et al (2009) “The stoichiometry of AMPA receptors and TARPs varies by neuronal cell type.” Neuron 62(5): 633-640), the C-terminus of the cDNA for GRIA1o was fused to the N-terminus of the cDNA for γ8. The linker sequence was […]. Channels expressed with this construct appear to have similar properties to channels formed by co-expression of GRIA1o with an excess of CACNG8 (Shi et al. 2009). A clonal cell line in HEK293 cells stably expressing this construct, with a geneticin selection marker, was generated for use in this assay.
Cell expressing the GRIA1o-CACNG8 fusion construct were grown in a monolayer in 96- or 384-well microtiter plates. They were washed with assay buffer (135 mM NaCl, 4 mM KCl, 3 mM CaCl2, 1 mM MgCl2, 5 mM glucose, 10 mM HEPES, pH 7.4, 300 mOs) using a Biotek EL405 plate washer. The cells were then loaded with a calcium-sensitive dye (Calcium-5 or Calcium-6, Molecular Devices) and the test compounds at a range of concentrations. Calcium flux following the addition of 15 μM glutamate was monitored using a Molecular Devices FLIPR Tetra.
The fluorescence in each well was normalized to the fluorescence of negative and positive control wells. The negative control wells had no added compounds, and the positive control wells had been incubated with 10 μM CP465022 (a non-subtype-selective AMPA receptor antagonist) (Lazzaro et al. (2002). “Functional characterization of CP-465,022, a selective, noncompetitive AMPA receptor antagonist.” Neuropharmacology 42(2): 143-153). The responses to glutamate as functions of the test compound concentrations were fitted to a four-parameter logistic function. The fitted parameter corresponding to the midpoint was taken to be the potency of inhibition of the compound. The data in Table 4 below illustrates the observed potency for the compounds described herein. pIC50 refers to the negative log of the IC50 in molar.
`CCc1nc2c(F)cc(C(F)(F)F)c(-c3cc(Cl)c4c(c3)CC(=O)N4)n2n1` [Example 32, 7-Chloro-5-[2-ethyl-8-fluoro-6-(trifluoromethyl)-[1,2,4]triazolo[1,5-a]pyridin-5-yl]indolin-2-one] showed an IC50 of 2000 pM. `Cc1cc(-c2c(C(F)(F)F)cc(F)c3nc(C4CC4)nn23)cc2cn[nH]c12` [Example 33, 2-Cyclopropyl-8-fluoro-5-(7-methyl-1H-indazol-5-yl)-6-(trifluoromethyl)-[1,2,4]triazolo[1,5-a]pyridine] was tested, and the IC50 was 200 pM. `CC(C)c1nc2c(F)cc(C(F)(F)F)c(-c3cc(Cl)c4[nH]ncc4c3)n2n1` [Example 34, 5-(7-Chloro-1H-indazol-5-yl)-8-fluoro-2-isopropyl-6-(trifluoromethyl)-[1,2,4]triazolo[1,5-a]pyridine] gave an IC50 of 316 pM. `CCc1nc2c(C)cc(C(F)(F)F)c(-c3cc(Cl)c4[nH]ncc4c3)n2n1` [Example 35, 5-(7-Chloro-1H-indazol-5-yl)-2-ethyl-8-methyl-6-(trifluoromethyl)-[1,2,4]triazolo[1,5-]pyridine] gave an IC50 of 398 pM. Molecule `CC(C)c1nc2ccc(C(F)(F)F)c(-c3cc(Cl)c4[nH]ncc4c3)n2n1` [Example 36, 5-(7-Chloro-1H-indazol-5-yl)-2-isopropyl-6-(trifluoromethyl)-[1,2,4]triazolo[1,5-a]pyridine] has an IC50 of 79.4 pM. `Cc1cc(-c2c(C(F)(F)F)ccc3nc(C(C)C)nn23)cc2cn[nH]c12` [Example 37, 2-Isopropyl-5-(7-methyl-1H-indazol-5-yl)-6-(trifluoromethyl)-[1,2,4]triazolo[1,5-a]pyridine] was tested, and the IC50 was 316 pM. Work on `FC(F)(F)c1ccc2nc(C3CC3)nn2c1-c1cc(Cl)c2[nH]ncc2c1` [Example 38, 5-(7-Chloro-1H-indazol-5-yl)-2-cyclopropyl-6-(trifluoromethyl)-[1,2,4]triazolo[1,5-a]pyridine] yielded an IC50 of 126 pM. `Cc1cc(-c2c(C(F)(F)F)ccc3nc(C4CC4)nn23)cc2cn[nH]c12` [Example 39, 2-Cyclopropyl-5-(7-methyl-1H-indazol-5-yl)-6-(trifluoromethyl)-[1,2,4]triazolo[1,5-a]pyridine] was tested, and the IC50 was 316 pM. Molecule `O=C1Cc2cc(-c3c(C(F)(F)F)ccc4nc(C5CC5)nn34)cc(Cl)c2N1` [Example 40, 7-Chloro-5-(2-cyclopropyl-6-(trifluoromethyl)-[1,2,4]triazolo[1,5-a]pyridin-5-yl)indolin-2-one] has an IC50 of 398 pM. `Cc1cc(-c2c(C(F)(F)F)ccc3nc(C4CC4)nn23)cc2c1NC(=O)C2` [Example 41, 5-(2-Cyclopropyl-6-(trifluoromethyl)-[1,2,4]triazolo[1,5-a]pyridin-5-yl)-7-methylindolin-2-one] was tested, and the IC50 was 631 pM. For `CC(F)(F)c1nc2ccc(C(F)(F)F)c(-c3cc(Cl)c4[nH]ncc4c3)n2n1` [Example 42, 5-(7-Chloro-1H-indazol-5-yl)-2-(1,1-difluoroethyl)-6-(trifluoromethyl)-[1,2,4]triazolo[1,5-a]pyridine], the IC50 was 100 pM. `COc1nc2ccc(C(F)(F)F)c(-c3cc(Cl)c4[nH]ncc4c3)n2n1` [Example 43, 5-(7-Chloro-1H-indazol-5-yl)-2-methoxy-6-(trifluoromethyl)-[1,2,4]triazolo[1,5-a]pyridine] showed an IC50 of 3160 pM. In the case of `CCc1nc2ccc(C(F)F)c(-c3cc(Cl)c4[nH]ncc4c3)n2n1` [Example 44, 5-(7-Chloro-1H-indazol-5-yl)-6-(difluoromethyl)-2-ethyl-[1,2,4]triazolo[1,5-a]pyridine], the IC50 is reported as 398 pM. `CCc1nc2ccc(C(F)F)c(-c3cc(C)c4[nH]ncc4c3)n2n1` [Example 45, 6-(Difluoromethyl)-2-ethyl-5-(7-methyl-1H-indazol-5-yl)-[1,2,4]triazolo[1,5-a]pyridine] was tested, and the IC50 was 1260 pM. For `CCc1nc2ccc(C(F)F)c(-c3cc(Cl)c4c(c3)CC(=O)N4)n2n1` [Example 46, 7-Chloro-5-(6-(difluoromethyl)-2-ethyl-[1,2,4]triazolo[1,5-a]pyridin-5-yl)indolin-2-one], the IC50 was 3980 pM. Work on `CCc1nc2ccc(C(F)F)c(-c3cc(C)c4c(c3)CC(=O)N4)n2n1` [Example 47, 5-(6-(Difluoromethyl)-2-ethyl-[1,2,4]triazolo[1,5-a]pyridin-5-yl)-7-methylindolin-2-one] yielded an IC50 of 3980 pM. `FC(F)c1ccc2nc(C3CC3)nn2c1-c1cc(Cl)c2[nH]ncc2c1` [Example 48, 5-(7-Chloro-1H-indazol-5-yl)-2-cyclopropyl-6-(difluoromethyl)-[1,2,4]triazolo[1,5-a]pyridine] showed an IC50 of 200 pM. In the case of `Cc1cc(-c2c(C(F)F)ccc3nc(C4CC4)nn23)cc2cn[nH]c12` [Example 49, 2-Cyclopropyl-6-(difluoromethyl)-5-(7-methyl-1H-indazol-5-yl)-[1,2,4]triazolo[1,5-a]pyridine], the IC50 is reported as 794 pM. `COc1ccc2nc(C(F)(F)F)nn2c1-c1cc(Cl)c2[nH]ncc2c1` [Example 50, 5-(7-Chloro-1H-indazol-5-yl)-6-methoxy-2-(trifluoromethyl)-[1,2,4]triazolo[1,5-a]pyridine] was tested, and the IC50 was 1000 pM. Molecule `COc1ccc2nc(C(F)(F)F)nn2c1-c1cc(C)c2[nH]ncc2c1` [Example 51, 6-Methoxy-5-(7-methyl-1H-indazol-5-yl)-2-(trifluoromethyl)-[1,2,4]triazolo[1,5-a]pyridine] has an IC50 of 5010 pM. `CCc1ccc2nc(C(F)(F)F)nn2c1-c1cc(C)c2[nH]ncc2c1` [Example 52, 6-Ethyl-5-(7-methyl-1H-indazol-5-yl)-2-(trifluoromethyl)-[1,2,4]triazolo[1,5-a]pyridine] gave an IC50 of 501 pM. Molecule `CC(F)(F)c1ccc2nc(C(F)(F)F)nn2c1-c1cc(Cl)c2[nH]ncc2c1` [Example 53, 5-(7-Chloro-1H-indazol-5-yl)-6-(1,1-difluoroethyl)-2-(trifluoromethyl)-[1,2,4]triazolo[1,5-a]pyridine] has an IC50 of 50.1 pM. Work on `O=c1[nH]c2ccc(-c3c(C(F)(F)F)ccc4nc(C(F)F)nn34)cc2s1` [Example 54, 6-(2-(Difluoromethyl)-6-(trifluoromethyl)-[1,2,4]triazolo[1,5-a]pyridin-5-yl)benzo[d]thiazol-2(3H)-one] yielded an IC50 of 794 pM. With `Cc1cc(-c2c(-c3ccc(F)cc3)ccc3nc(C(F)(F)F)nn23)cc2cn[nH]c12` [Example 55, 6-(4-Fluorophenyl)-5-(7-methyl-1H-indazol-5-yl)-2-(trifluoromethyl)-[1,2,4]triazolo[1,5-a]pyridine] the IC50 was 39.8 pM. `Fc1ccc(-c2ccc3nc(C(F)(F)F)nn3c2-c2ccc3[nH]ncc3c2)cc1` [Example 56, 6-(4-Fluorophenyl)-5-(1H-indazol-5-yl)-2-(trifluoromethyl)-[1,2,4]triazolo[1,5-a]pyridine] showed an IC50 of 1260 pM. Work on `Cc1cc(-c2c(-c3ccc(F)cc3)ccc3nc(C(F)(F)F)nn23)cc2c1NC(=O)C2` [Example 57, 5-(6-(4-Fluorophenyl)-2-(trifluoromethyl)-[1,2,4]triazolo[1,5-a]pyridin-5-yl)-7-methylindolin-2-one] yielded an IC50 of 63.1 pM. For `Cc1cc(-c2c(-c3cccnc3)ccc3nc(C(F)(F)F)nn23)cc2cn[nH]c12` [Example 58, 5-(7-Methyl-1H-indazol-5-yl)-6-(pyridin-3-yl)-2-(trifluoromethyl)-[1,2,4]triazolo[1,5-a]pyridine], the IC50 was 794 pM. Molecule `Cc1cc(-c2c(-c3ccncc3)ccc3nc(C(F)(F)F)nn23)cc2cn[nH]c12` [Example 59, 5-(7-Methyl-1H-indazol-5-yl)-6-(pyridin-4-yl)-2-(trifluoromethyl)-[1,2,4]triazolo[1,5-a]pyridine] has an IC50 of 6310 pM.
